Measurements reported in patent US20110219476A1, “GLUCURONYL TRANSFERASE AND POLYNUCLEOTIDE ENCODING THE SAME” (priority 2008, published 2011).

Key:
[1] = target: T1, flavonoid 7-O-glucuronosyltransferase VpF7GAT (Veronica persica, UniProt C0STS8); assay: Selectivity of VpF7GAT to glycosyl acceptor substrates (glycosyl donor: UDP-glucuronic acid); format: biochemical; details: for glucuronosyltransferase activity (in words) / relative activity of glycosyl acceptor substrate: glycosyl donor UDP-glucuronic acid; for glucuronosyltransferase activity (in words): reaction conditions for this enzyme; for activity of VpF7GAT with the glycosyl acceptor substrate (in words, summary in the description): compared to other glycosyl acceptor substrates; for relative activity of glycosyl acceptor substrate: activity to apigenin made 100%, FIG. 3
Protocol: (§1) Standard reaction conditions are as follows. […] The mixture was reacted at 30° C. for 1 minute. The reaction was then terminated by adding 50 μl of CH3CN containing 0.5% TFA. The product was analyzed by reversed phase HPLC (LC-2010 System, Shimadzu Corporation).
(§2) The conditions for HPLC are as follows. Develosil C30-UG-5 column (4.6 mm×150 mm, Nomura Chemical) was used with a column oven at 40° C., and the moving phase A (0.1% TFA/H2O) and the moving phase B (0.1% TFA/90% CH3CN) were used. The conditions for elution include a linear density gradient (B20%→B70%) for 15 minutes, then retention with B70% for further 1 minute and again reverting to B20%, followed by equilibration for 20 minutes. HPLC was performed at the flow of 1 ml/min. Detection was performed at 280 and 360 nm using a SPD-M10A Photodiode Array Detector (Shimadzu Corporation).

[2] = target: T1, flavonoid 7-O-glucuronosyltransferase VpF7GAT; details: glycosyl acceptor substrate apigenin; activity of UDP-glucuronic acid made 100%
Protocol: as §1, §2

T1 sequence (C0STS8 entry or part of it): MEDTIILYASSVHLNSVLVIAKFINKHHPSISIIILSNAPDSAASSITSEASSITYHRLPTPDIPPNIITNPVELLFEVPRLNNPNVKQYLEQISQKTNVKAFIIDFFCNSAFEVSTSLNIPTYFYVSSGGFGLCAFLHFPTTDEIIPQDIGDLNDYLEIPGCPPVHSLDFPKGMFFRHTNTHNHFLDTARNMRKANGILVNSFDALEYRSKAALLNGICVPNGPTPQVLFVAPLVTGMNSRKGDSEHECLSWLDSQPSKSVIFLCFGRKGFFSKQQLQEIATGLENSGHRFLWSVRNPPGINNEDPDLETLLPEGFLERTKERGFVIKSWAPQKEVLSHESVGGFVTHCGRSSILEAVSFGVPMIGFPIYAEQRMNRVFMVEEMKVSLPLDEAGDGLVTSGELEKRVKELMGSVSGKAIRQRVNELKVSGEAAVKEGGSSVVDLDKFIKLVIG

Compound	glucuronosyltransferase activity (in words) [1]	activity of VpF7GAT with the glycosyl acceptor substrate (in words, summary in the description) [1]	relative activity of glycosyl acceptor substrate [1]	relative activity of UDP glycosyl donor [2]
O=c1c(-c2ccc(O)cc2)coc2cc(O)cc(O)c12 [genistein]	not observed	–	–	–
O=c1cc(-c2ccc(O)c(O)c2)oc2c([C@@H]3O[C@H](CO)[C@@H](O)[C@H](O)[C@H]3O)c(O)cc(O)c12 [orientin]	not observed	–	–	–
O=c1ccc2cc(O)c(O)cc2o1 [esculetin]	not observed	–	–	–
O=c1cc(-c2ccccc2)oc2cc(O)c(O)c(O)c12 [baicalein]	–	shows an activity	13.1%	–
O=c1c(O)c(-c2ccc(O)c(O)c2)oc2cc(O)cc(O)c12 [quercetin]	–	shows an activity	1.0%	–
COc1cc(-c2cc(=O)c3c(O)cc(O)cc3o2)ccc1O [chrysoeriol]	–	strong	34.0%	–
O=C(O)[C@H]1O[C@H](OP(=O)(O)OP(=O)(O)OC[C@H]2O[C@@H](n3ccc(=O)[nH]c3=O)[C@H](O)[C@@H]2O)[C@H](O)[C@@H](O)[C@@H]1O [UDP-glucuronic acid]	–	–	–	100%
O=c1cc(-c2ccc(O)cc2)oc2cc(O)c([C@@H]3O[C@H](CO)[C@@H](O)[C@H](O)[C@H]3O)c(O)c12 [isovitexin]	not observed	–	–	–
O=C1C[C@@H](c2ccc(O)cc2)Oc2cc(O)cc(O)c21 [naringenin]	–	strong	18.0%	–
O=c1c(O)c(-c2ccc(O)cc2)oc2cc(O)cc(O)c12 [kaempferol]	–	strong	13.3%	–
O=c1cc(-c2ccc(O)cc2)oc2cc(O)c(O)c(O)c12 [scutellarein]	–	–	88.3%	–
Oc1cc2c(cc1[C@H]1OC[C@H]3[C@@H]1CO[C@@H]3c1ccc3c(c1)OCO3)OCO2 [sesaminol]	not observed	–	–	–
COc1ccc(-c2cc(=O)c3c(O)cc(O)cc3o2)cc1O [diosmetin]	–	strong	12.9%	–
O=c1cc(-c2ccc(O)cc2)oc2cc(O)cc(O)c12 [apigenin]	–	strong	100%	–
Oc1ccc(C=Cc2cc(O)cc(O)c2)cc1 [resveratrol]	not observed	–	–	–
